No end group written: not given here.
Tests used:
HNB = assay: ITC of HNB into assay buffer (self-interaction, baseline control); format: binding; conditions: 500 µM HNB into ITC assay buffer, 25°C
Procedure: Isothermal titration calorimetry (ITC) measures the change in temperature when two or more biomolecules bind to each other in a solution. The assay provides the binding affinity of ligands to proteins and the entropy or enthalpy of the reaction. Recombinant KRAS protein (#ab156968, Abcam) was dialyzed into the ITC assay buffer (20mM Tris pH 8.0, 100mM NaCl, 5mM Beta-mercaptoethanol) and concentrated to about 100 μM. During ITC titration twenty 6 μl injections (with intervals of 150 seconds) of 500μM HNB were made into the ITC cell containing 93 μM KRAS. Titration of 500μM HNB into the ITC assay buffer under the same conditions was used as the baseline control. ITC experiments were performed using Affinity ITC instrument (TA Instruments) at 25°C. The data was fitted and analyzed using NanoAnalyze software provided by TA Instruments. […]
bioRxiv preprint doi: https://doi.org/10.1101/2025.02.17.638454; this version posted February 22, 2025. The copyright holder for this preprint (which was not certified by peer review) is the author/funder, who has granted bioRxiv a license to display the preprint in perpetuity. It is made available under aCC-BY 4.0 International license. […]

MYC = assay: q-RT-PCR of MYC transcript in D458; format: cell-based, human; conditions: D458, induction of HNB (-/+ Dox); n=3, unpaired t-test
Procedure: Total RNA was extracted with the TRIzol (Roche, Indianapolis, IN) as described by the manufacturer and complementary DNA synthesis, 1 μg of total RNA was reverse transcribed by using the GoScriptTM Reverse Transcription Mix, Random Primer Protocol (Promega, Madison, WI). Real-time PCR was run in triplicate using PowerUpTM SYBRTM Green Master Mix (Thermo Fisher Scientific), following the manufacturer’s instructions. Real-time PCR amplification monitoring was performed using the CFX96 Touch Real-Time PCR Detection System (Bio-Rad). Data were expressed as relative mRNA levels normalized to the GAPDH, served as endogenous normalization control expression levels in each sample, and are represented as mean ± standard error of the mean between 2 independent experiments unless otherwise indicated in the figure legend. The primer sequences are listed in the Supplementary Table.
The HNB ORF and eGFP (control) were cloned in an inducible lentivirus expression, TRE-gateway plasmid (pLIX_403, Addgene, #41395). Lentivirus was produced in HEK293T cells using the protocol described above. […] The protein lysates were collected and quantified using the previously described protocol. […] Bound proteins were detected with horseradish-peroxidase–conjugated secondary antibodies (Cell Signaling Technologies) and SuperSignal West Femto (Thermo Fisher Scientific). […]

HALLMARK_MYC_TARGETS = assay: GSEA MYC targets, SK-PN-DW; format: cell-based, human; conditions: si.CircPVT1 vs si.Ctrl, n=3, Padj = 0.010
Text: RNAseq processing: Raw reads were mapped to the hg19 human reference genome using the STAR aligner (v.2.5.0a) 66. PCR-duplicated reads and low mapping quality reads (MQ score below 20) were removed using Picard tools and SAMtools, respectively. Aligned reads were counted using htseq-count (v.0.6.1p1) 69 and normalized according to size factors method from DESeq2 70. We used fold change ≥2 and FDR <0.05 as the determination of differentially expressed genes (DEG). […]
Supplementary Figure 9: Gene set enrichment analysis scores (GSEA) analysis for MYC targets genes in COLODM320 (A,B) and SK-PN-DW (C,D) treated with si.CircPVT 1. si.Ctrl was used as control . n=3, for each treatment condition .
(also on this page, place not known: Enrichment Score Enrichment Score si.CircPVT1. control. condition. Enrichment Score Enrichment Score .CC-BY licenseavailable preprintthis https://doi.org/10.1101/2025.02.17.638454doi:) […]

MKTQLGAVKGFLHV [HNB]
HNB self-interaction (HNB): not detected | MYC mRNA level (MYC): significantly reduced MYC expression at the mRNA as well as the protein levels

si.CircPVT1: siRNA targeting the junction sequence of CircPVT1, 5’-UGGGCUUGAGGCCUGAUCUUU-3’ (other strand not given here)
NES, HALLMARK_MYC_TARGETS_V1 (HALLMARK_MYC_TARGETS): -1.653 | NES, HALLMARK_MYC_TARGETS_V2 (HALLMARK_MYC_TARGETS): -1.789

— paper doi:10.1101/2025.02.17.638454, “Synergistic RAS-MAPK and AKT Activation in MYC-Driven Tumors via Adjacent PVT1 Rearrangements” (bioRxiv, 2025)
